We go through two molecules from paper PMC5159239 (Cell host & microbe, 2016).

The target of data set [1] is UL37C (571-1123) (Human alphaherpesvirus 1 strain 17, UniProt P10221). Briefly: tandem mass spectrometry of cysteine labelling. It counts as binding. The conditions noted are these: covalent at C819; 45 min; also tested at 1 µM.
Data set [2] deals with the molecule itself. The data set is described as follows: SEC. Background: SEC sorts molecules by how far they enter the pores of the column.

Sequence of UL37C (571-1123) (P10221 571-1123): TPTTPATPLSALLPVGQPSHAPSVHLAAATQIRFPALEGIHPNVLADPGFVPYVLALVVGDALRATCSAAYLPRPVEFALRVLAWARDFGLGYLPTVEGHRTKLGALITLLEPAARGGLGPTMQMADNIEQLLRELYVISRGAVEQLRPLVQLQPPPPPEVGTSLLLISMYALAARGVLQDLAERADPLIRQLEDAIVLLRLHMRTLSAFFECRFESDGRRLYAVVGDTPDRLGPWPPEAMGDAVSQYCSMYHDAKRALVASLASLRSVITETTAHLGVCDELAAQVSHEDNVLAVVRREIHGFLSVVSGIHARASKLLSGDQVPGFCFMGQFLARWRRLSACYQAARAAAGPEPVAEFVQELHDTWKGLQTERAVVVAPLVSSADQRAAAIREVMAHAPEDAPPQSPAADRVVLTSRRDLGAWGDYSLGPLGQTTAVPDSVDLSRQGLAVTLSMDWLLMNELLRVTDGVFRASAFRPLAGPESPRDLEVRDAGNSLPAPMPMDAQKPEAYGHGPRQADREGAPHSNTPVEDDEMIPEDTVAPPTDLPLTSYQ

`O=C(CCl)NCO` [2-Chloro-N-(hydroxymethyl)acetamide]: the “% C819 labelled at 10 μM” value in data set [1] was 42.5%.

B1: RIG-I-QQ (natural protein)
chain: MTTEQRRSLQAFQDYIRKTLDPTYILSYMAPWFREEEVQYIQAEKNNKGPMEAATLFLKFLLELQEEGWFRGFLDALDHAGYSGLYEAIESWDFKKIEKLEEYRLLLKRLQPEFKTRIIPTDIISDLSECLINQECEEILQICSTKGMMAGAEKLVECLLRSDKENWPKTLKLALEKERNKFSELWIVEKGIKDVETEDLEDKMETSDIQIFYQEDPECQNLSENSCPPSEVSDTNLYSPFKPRNYQLELALPAMKGKNTIICAPTGCGKTFVSLLICEHHLKKFPQGQKGKVVFFANQIPVYEQQKSVFSKYFERHGYRVTGISGATAENVPVEQIVENNDIIILTPQILVNNLKKGTIPSLSIFTLMIFDECHNTSKQHPYNMIMFNYLDQKLGGSSGPLPQVIGLTASVGVGDAKNTDEALDYICKLCASLDASVIATVKHNLEELEQVVYKPQKFFRKVESRISDKFKYIIAQLMRDTESLAKRICKDLEQLSQIQNREFGTQKYEQWIVTVQKACMVFQMPDKDEESRICKALFLYTSHLRKYQDALIISEHARMKDALDYLKDFFSNVRAAGFDEIEQDLTQRFEEKLQELESVSRDPSNENPKLEDLCFILQEEYHLNPETITILFVKTRALVDALKNWIEGNPKLSFLKPGILTGRGKTNQNTGMTLPAQKCILDAFKASGDHNILIATSVADEGIDIAQCNLVILYEYVGNVIKMIQTRGRGRARGSKCFLLTSNAGVIEKEQINMYKEKMMNDSILRLQTWDEAVFREKILHIQTHEKFIRDSQEKPKPVPDKENKKLLCRKCKALACYTADVRVIEECHYTVLGDAFKECFVSRPHPKPKQFSSFEKRAKIFCARQNCSHDWGIHVKYKTFEIPVIKIESFVVEDIATGVQTLYSKWKDFHFEKIPFDPAEMSK
As for B1, the binding result in data set [2] is recorded as “binds”.
